Read-outs that look alike come from different tables or passages of the source.
Tests used:
PKC beta-I = target: T1, PKC beta-I (Homo sapiens, UniProt P05771); assay: PKC binding assay, competition with 3H-PDBu (glass-fiber filtration)
T1 construct: purchased Invitrogen
Protocol: (§1) This procedure entails a glass-fiber filtration method to determine bound radioligand. PKC-beta-I and PKC-delta were selected for preliminary evaluation. The former is a member of the conventional PKC subfamily while the latter is a member of the novel PKC sub-family (A. C. Newton. Protein Kinase C: Structure, Function, and Regulation. J. Biol. Chem. 270, 28495-28498 (1995)).
(§2) To a 50 mL polypropylene tube was added Tris-HCl (pH 7.4, 1 M, 1 mL), KCl (1 M, 2 mL), CaCl2 (0.1 M, 30 μL), and bovine serum albumin (40 mg, Sigma-Aldrich). This mixture was diluted to 20 mL with deionized H2O and mixed gently. The buffer was stored on ice until use.
(§3) For every two assays, 3.5 mg phosphatidylserine (Avanti Polar Lipids, porcine, 25 mg/mL CHCl3 solution) was concentrated by removing chloroform under a stream of nitrogen followed by reduced pressure. The solid P S was suspended as vesicles in freshly prepared PKC binding assay buffer (3.5 mL) by sonicating six times for 30 sec, with a 30 sec rest between sonications (Branson Sonifier 250, power=2, 50% duty cycle). The resulting milky cloudy mixture (1 mg/mL) was stored on ice until use.
(§4) Assay PKC was prepared by dissolving a 4 μg aliquot of the indicated recombinant human PKC isoform (Invitrogen) into 11.6 mL of PKC binding assay buffer (this amount is sufficient for two assays). The diluted PKC was stored on ice for immediate use.
(§5) The resulting 500 nM stock solution was further diluted with DMSO to 30 nM.
(§6) Compound dilutions were prepared by serially diluting from a chosen “high” concentration by factors of 3 or 4. For each analog compound, seven concentrations were used to define the inhibition curve (i.e. for exocyclic alkene 34, the analog concentrations used were 3000 nM, 750 nM, 188 nM, 46.9 nM, 11.7 nM, 2.93 nM, and 0.73 nM).
(§7) The resulting solution was vortexed to mix and stored on ice.
(§8) • Glass-fiber filters (Whatman GF/B) were prepared by soaking them in a solution of aqueous polyethyleneimine (10% by vol, 18 mL) in deionized water (600 mL) for >1 h. • 500 mL “rinsing buffer” of 20 mM Tris, pH 7.4 was cooled on ice for the duration of the incubation period and for the remainder of the assay.
(§9) Triplicate data points were obtained for each analog concentration. […]
(§10) The resulting filters had circular perforations for each data point, which were removed with forceps and placed in a scintillation vial. Scintillation vials were filled with Bio-Safe II scintillation fluid (5 mL) and measured for radioactivity using a Beckman LS 6000SC scintillation counter. […] The data were plotted—cpm vs. log(concentration)—using Prism® by GraphPad Software and an IC50 was determined using that program's built-in one-site competition least squares regression function.

PKC delta = target: T2, PKC delta (Homo sapiens, UniProt Q05655); assay: as above; conditions: recombinant human PKC isoform, parentheses = 95% confidence interval
T2 construct: purchased Invitrogen
Protocol: as §1, §2, §3, §4, §5, §6, §7, §8, §9, §10

[1] = recombinant human PKC isoform, competition with 3H-PDBu, parentheses = 95% confidence interval, read-out: PKC Ki (nM) beta-1

T1 sequence (P05771 whole entry): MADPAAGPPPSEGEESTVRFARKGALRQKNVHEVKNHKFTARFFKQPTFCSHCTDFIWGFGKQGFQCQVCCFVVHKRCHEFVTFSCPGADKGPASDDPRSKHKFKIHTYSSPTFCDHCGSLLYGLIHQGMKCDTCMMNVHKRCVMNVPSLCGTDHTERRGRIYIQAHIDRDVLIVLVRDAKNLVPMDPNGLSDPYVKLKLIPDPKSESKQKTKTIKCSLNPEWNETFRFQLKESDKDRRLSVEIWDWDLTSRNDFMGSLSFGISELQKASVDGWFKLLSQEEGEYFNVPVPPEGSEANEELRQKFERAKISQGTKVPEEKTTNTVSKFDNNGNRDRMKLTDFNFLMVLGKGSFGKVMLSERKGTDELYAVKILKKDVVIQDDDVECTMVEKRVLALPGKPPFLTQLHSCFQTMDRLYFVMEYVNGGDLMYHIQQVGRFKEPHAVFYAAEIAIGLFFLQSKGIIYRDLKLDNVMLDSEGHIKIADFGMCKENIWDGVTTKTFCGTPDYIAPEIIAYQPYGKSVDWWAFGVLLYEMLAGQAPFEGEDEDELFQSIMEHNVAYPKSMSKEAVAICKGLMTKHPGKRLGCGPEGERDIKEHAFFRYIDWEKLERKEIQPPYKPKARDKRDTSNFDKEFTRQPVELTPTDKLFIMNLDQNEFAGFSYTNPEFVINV
T2 sequence (Q05655 whole entry, canonical isoform): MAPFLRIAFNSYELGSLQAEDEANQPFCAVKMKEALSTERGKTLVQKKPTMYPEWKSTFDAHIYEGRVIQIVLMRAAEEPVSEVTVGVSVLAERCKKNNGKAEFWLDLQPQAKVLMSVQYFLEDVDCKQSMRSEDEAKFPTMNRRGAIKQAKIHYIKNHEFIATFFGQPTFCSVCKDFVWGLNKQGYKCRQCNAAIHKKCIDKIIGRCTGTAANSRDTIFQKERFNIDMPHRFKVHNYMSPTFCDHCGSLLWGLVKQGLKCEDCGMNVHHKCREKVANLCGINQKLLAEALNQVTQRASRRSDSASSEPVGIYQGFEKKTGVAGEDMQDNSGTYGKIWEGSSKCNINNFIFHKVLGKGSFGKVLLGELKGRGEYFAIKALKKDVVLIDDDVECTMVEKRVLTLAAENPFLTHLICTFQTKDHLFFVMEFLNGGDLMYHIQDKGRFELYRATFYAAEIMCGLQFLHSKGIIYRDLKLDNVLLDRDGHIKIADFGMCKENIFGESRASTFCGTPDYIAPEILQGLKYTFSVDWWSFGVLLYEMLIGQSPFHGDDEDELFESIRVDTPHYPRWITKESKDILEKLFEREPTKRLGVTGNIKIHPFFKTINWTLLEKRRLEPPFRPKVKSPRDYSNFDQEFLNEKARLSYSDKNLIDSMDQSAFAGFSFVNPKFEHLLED

| SMILES | Ki (PKC beta-I) [nM] | Ki (PKC delta) [nM] | Ki (PKC beta-I; [1]) [nM] |
| --- | --- | --- | --- |
| CCC/C=C/C=C/C(=O)O[C@H]1/C(=C/C(=O)OC)C[C@H]2CC([C@@H](C)O)OC(=O)C[C@@H](O)C[C@@H]3C[C@H](OC(C)=O)C(C)(C)[C@](O)(C[C@@H]4C/C(=C\C(=O)OC)C[C@H](/C=C/C(C)(C)[C@]1(O)O2)O4)O3 (stereo partly shown) [(E)-enoate 35] | 12 |  |  |
| C=C1C[C@H]2C[C@]3(O)O[C@H](C[C@H](O)CC(=O)OC([C@@H](C)O)C[C@@H]4C/C(=C\C(=O)OC)[C@H](OC(=O)C#CCCCCC)[C@@](O)(O4)C(C)(C)/C=C/[C@@H](C1)O2)C[C@H](OC(C)=O)C3(C)C (stereo partly shown) [alkene 34] |  | 0.76 | 3.9 |
| CCC/C=C/C=C/C(=O)O[C@H]1/C(=C/C(=O)OC)C[C@H]2C[C@H]([C@@H](C)O)OC(=O)C[C@H](O)C[C@@H]3C[C@H](OC(C)=O)C(C)(C)[C@](O)(C[C@@H]4C/C(=C/C(=O)OC)C[C@H](/C=C/C(C)(C)[C@]1(O)O2)O4)O3 [bryostatin 1, reference compound] |  |  | 1.6 |

Reference: patent US12435071B2, “Bryostatin compounds and methods of preparing the same” (priority 2016, dated 2025)
